# Entries after “also recorded” stand apart in the source; their conditions may differ.
# Tested on: RAW 264.7 cells
# Experiment: LPS-induced NO production (nitrite, Griess reaction) in mouse macrophages
# Type: cell-based
# Conditions: for effect on LPS-induced NO production: varying concentrations, added 1.5 h before, after or simultaneously with LPS
# Experimental: As nitric oxide production is a useful marker of macrophage response to bacterial LPS, the in vitro model system is a valuable tool for examining the modulating effects of sophorolipids on LPS-induced macrophage responses under controlled conditions. Mouse macrophages (RAW 264.7, ATCC) were incubated in the presence of LPS (Salmonella typhimurium, Sigma #6511) (50 ng/ml, an optimal dose for inducing NO production), and varying concentrations of sophorolipids (SL, natural mixture), sophorolipid diethyl ester (E), and corresponding sophorolipid diacetate (K). Sophorolipids were added 1.5 hours before, 1.5 hours after, or simultaneously with LPS. Aliquots of culture supernatants were collected after 5 days and NO content was determined by measuring nitrite (modified Griess reaction). Briefly, triplicate 50 μl aliquots of the culture supernatant were mixed in wells of a 96-well microtiter plate with 100 μl of Griess reagent containing a 1:1 (vol/vol) mixture of 1% (wt/vol) sulfanilamide in 30% acetic acid and 0.5% (wt/vol) of N-(-1-Naphthyl)ethylenediamine dihydrochloride in 60% acetic acid. Chromophore generated by the reaction with nitrite was detected spectrophotometrically (550 nm) using a microtiterplate reader (ELx 800, BioTek Instruments, Winooski, Vt.). The concentration of nitrite was calculated by using calibration with known concentrations of NaNO2.
# This in vitro model system made it possible to examine in detail the effects of sophorolipids on LPS induced NO production as a marker of the acute inflammatory pathway that leads to septic shock in vivo. NO production appeared to depend on the sequence of addition of sophorolipids relative to LPS. The in vitro effects were most pronounced when sophorolipids were introduced either before or simultaneously with LPS.
Compound,"rating of the potency of inhibitory activities on LPS induced NO production (RAW 264.7 cells, LPS 50 ng/ml)",effect on LPS-induced NO production,"inhibition of LPS-induced NO production (plateau / maximum) (at 25 ng/ml, LPS 50 ng/ml, RAW 264.7 cells, supernatants after 5 days)"
"CCOC(=O)CCCCCCC/C=C\CCCCCCC(C)O[C@@H]1O[C@H](COC(C)=O)[C@@H](O)[C@H](O)[C@H]1O[C@@H]1O[C@H](COC(C)=O)[C@@H](O)[C@H](O)[C@H]1O (relative stereo) [K, Ethyl 17-L[(2′-O-β-D glucopyranosyl-β-D-glucopyranosyl)-oxy]-cis-9-octadecenoate 6′,6″-diacetate]",E>SL>K,inhibited LPS-induced NO production in a dose- and time-dependent manner,–
"CCOC(=O)CCCCCCC/C=C\CCCCCCC(C)O[C@@H]1O[C@H](CO)[C@@H](O)[C@H](O)[C@H]1O[C@@H]1O[C@H](CO)[C@@H](O)[C@H](O)[C@H]1O (relative stereo) [E, Ethyl 17-L-[(2′-O-β-D-glucopyranosyl-β-D-glucopyranosyl)-oxy]-cis-9-octadecenoate]",E>SL>K; also recorded: least inhibitory and the most variable effects,inhibited LPS-induced NO production in a dose- and time-dependent manner,60-65%
